Data from patent US20220372560A1, “METHODS FOR DETECTING OLIGONUCLEOTIDES” (Takeda Pharmaceutical Company Limited, priority 2019, published 2022).

Test: Persistence of PMO and P-PMO in serum and tissues two weeks post-last dose (FIGS. 5a, 5b)
Type: in vivo
Settings: mice
Procedure: PMO or P-PMO serial dilutions for standard curves and quality controls in 5.0% mouse serum, and 5.0 mg/ml or 1.0 mg/ml tissue homogenates were made using 1×TE buffer supplemented with 0.1% v/v Triton X-100 with a starting concentration of 51.2 nM PMO/P-PMO. Serum samples were diluted 20-fold, and tissues were homogenized and diluted to 5.0 mg/ml or 1.0 mg/ml tissue homogenates with the same buffer. 200 μL of calibrator solution, quality control, and/or sample were treated with 20 μL of 40 mg/ml trypsin (purchased as lyophilized powder from Sigma-Aldrich) at 37° C. overnight in a deep 1.0-mL 96-well plate on thermomixer C (600 rpm) to cleave the peptide component and release the PMO. 40 μL of 2.5 nM oligonucleotide probe in hybridization buffer (with 0.1% serum) was added to each well. The plate was then sealed, incubated at 65° C. for 15 minutes (600 rpm), and allowed to cool at room temperature for 15 minutes. […] The intensity of fluorescence at 444 nm excitation and 555 nm emission was measured by a […] SpectraMax MT5 microplate reader.
In order to test the persistence of oligonucleotides, serum and various tissues were also analyzed two weeks post-last dose. Serum levels for both PMO and P-PMO treated mice were measured in the 1 nM range. At this time point the overall oligonucleotide levels in the tissues analyzed were also similar (FIG. 5a). […]

PMO: 25-mer PMO antisense sequence for mouse dystrophin exon-23, 5′-GGCCAAACCTCGGCTTACCTGAAAT-3′ (SEQ ID NO: 1), not conjugated to a peptide (all phosphorodiamidate morpholino (PMO))
serum levels: ~1 nM
overall oligonucleotide levels in the tissues analyzed, PMO compared with P-PMO (absolute concentrations (FIG. 5a)): similar
